“And” between values parts separate entries of the source, which are not always exact repeats. Equal values may be shown once. The source made the active and inactive calls.
Key:
[1] = target: T1, Hexokinase-1 (Homo sapiens, UniProt P19367); test: SAR analysis of small molecule inhibitors of hexokinase domain containing I (HKDC1) in the hexokinase 1 selectivity assay. [Related pubchem assays (depositor defined):AID493160, AID493190]; assay type: functional
T1 sequence (P19367 whole entry): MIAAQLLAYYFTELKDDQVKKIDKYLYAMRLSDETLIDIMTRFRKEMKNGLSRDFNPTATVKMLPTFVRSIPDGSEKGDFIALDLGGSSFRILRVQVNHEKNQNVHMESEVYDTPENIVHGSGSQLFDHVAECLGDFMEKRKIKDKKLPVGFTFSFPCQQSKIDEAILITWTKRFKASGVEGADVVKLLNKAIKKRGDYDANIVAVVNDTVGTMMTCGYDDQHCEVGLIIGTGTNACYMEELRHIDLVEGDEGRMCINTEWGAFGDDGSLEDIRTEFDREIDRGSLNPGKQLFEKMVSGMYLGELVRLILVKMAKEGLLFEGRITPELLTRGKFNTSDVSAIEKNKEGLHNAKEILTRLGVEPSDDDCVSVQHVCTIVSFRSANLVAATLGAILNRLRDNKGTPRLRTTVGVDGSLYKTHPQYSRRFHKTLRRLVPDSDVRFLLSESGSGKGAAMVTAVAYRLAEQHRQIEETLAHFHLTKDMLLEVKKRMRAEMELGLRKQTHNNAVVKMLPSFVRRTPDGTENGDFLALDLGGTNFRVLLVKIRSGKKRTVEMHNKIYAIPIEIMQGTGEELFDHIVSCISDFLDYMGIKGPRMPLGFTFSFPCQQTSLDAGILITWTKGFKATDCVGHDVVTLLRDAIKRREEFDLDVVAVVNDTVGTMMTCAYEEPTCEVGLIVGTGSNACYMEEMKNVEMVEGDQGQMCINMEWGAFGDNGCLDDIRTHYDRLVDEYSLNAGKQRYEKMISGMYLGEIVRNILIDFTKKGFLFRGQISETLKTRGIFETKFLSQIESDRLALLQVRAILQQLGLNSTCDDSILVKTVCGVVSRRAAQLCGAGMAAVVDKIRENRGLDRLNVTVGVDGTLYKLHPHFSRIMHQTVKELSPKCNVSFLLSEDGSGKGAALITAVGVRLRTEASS

[2] = target: T2, Hexokinase HKDC1 (Homo sapiens, UniProt Q2TB90); test: SAR analysis of small molecule inhibitors of hexokinase domain containing I (HKDC1). [Related pubchem assays (depositor defined):AID493160, AID493190]; assay type: functional
T2 sequence (Q2TB90 whole entry): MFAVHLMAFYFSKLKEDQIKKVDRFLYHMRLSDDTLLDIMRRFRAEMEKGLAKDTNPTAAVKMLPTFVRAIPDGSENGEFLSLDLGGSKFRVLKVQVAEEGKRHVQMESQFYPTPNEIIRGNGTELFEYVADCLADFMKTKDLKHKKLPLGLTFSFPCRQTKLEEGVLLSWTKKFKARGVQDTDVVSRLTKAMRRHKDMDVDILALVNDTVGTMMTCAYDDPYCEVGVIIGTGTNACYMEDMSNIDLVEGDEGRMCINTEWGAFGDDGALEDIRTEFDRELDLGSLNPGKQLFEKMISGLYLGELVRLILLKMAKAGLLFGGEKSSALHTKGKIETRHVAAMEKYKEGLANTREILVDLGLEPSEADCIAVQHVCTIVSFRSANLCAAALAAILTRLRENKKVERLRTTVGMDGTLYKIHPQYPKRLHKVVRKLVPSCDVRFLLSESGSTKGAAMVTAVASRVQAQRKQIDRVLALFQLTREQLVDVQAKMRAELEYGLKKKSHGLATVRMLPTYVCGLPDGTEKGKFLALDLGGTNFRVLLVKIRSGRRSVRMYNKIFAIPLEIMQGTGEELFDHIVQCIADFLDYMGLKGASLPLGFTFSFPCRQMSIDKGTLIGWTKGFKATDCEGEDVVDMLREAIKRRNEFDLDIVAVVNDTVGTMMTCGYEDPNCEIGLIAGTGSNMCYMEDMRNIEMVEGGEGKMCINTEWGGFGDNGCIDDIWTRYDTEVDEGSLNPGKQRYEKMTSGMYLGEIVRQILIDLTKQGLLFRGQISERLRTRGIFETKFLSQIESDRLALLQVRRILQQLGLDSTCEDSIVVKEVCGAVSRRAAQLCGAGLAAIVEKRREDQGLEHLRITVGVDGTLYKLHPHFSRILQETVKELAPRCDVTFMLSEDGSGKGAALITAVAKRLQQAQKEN

[3] = target: Eukaryotic translation initiation factor 4E (Mus musculus, UniProt P63073); test: blockers of eIF4G binding by eIF4E – biochemical, TR-FRET, dose response (AID 855); assay type: functional;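 also: potency for disrupting eIF4E binding to eIF4GI seen as loss of FRET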
[4] = target: Cytochrome P450 3A4 (Homo sapiens, UniProt P08684);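 also: CYP3A4 tested as one member of a cytochrome P450 panel screen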
[5] = tested on: HEK293; test: cells; assay type: functional, cell-based; conditions: Homo sapiens
[6] = target: T3, Nucleotide-binding oligomerization domain-containing protein 1 (Homo sapiens, UniProt Q9Y239); test: blockers of NOD1 pathway activity – revised, SAR follow-up (AID 2333); assay type: functional
T3 sequence (Q9Y239 whole entry): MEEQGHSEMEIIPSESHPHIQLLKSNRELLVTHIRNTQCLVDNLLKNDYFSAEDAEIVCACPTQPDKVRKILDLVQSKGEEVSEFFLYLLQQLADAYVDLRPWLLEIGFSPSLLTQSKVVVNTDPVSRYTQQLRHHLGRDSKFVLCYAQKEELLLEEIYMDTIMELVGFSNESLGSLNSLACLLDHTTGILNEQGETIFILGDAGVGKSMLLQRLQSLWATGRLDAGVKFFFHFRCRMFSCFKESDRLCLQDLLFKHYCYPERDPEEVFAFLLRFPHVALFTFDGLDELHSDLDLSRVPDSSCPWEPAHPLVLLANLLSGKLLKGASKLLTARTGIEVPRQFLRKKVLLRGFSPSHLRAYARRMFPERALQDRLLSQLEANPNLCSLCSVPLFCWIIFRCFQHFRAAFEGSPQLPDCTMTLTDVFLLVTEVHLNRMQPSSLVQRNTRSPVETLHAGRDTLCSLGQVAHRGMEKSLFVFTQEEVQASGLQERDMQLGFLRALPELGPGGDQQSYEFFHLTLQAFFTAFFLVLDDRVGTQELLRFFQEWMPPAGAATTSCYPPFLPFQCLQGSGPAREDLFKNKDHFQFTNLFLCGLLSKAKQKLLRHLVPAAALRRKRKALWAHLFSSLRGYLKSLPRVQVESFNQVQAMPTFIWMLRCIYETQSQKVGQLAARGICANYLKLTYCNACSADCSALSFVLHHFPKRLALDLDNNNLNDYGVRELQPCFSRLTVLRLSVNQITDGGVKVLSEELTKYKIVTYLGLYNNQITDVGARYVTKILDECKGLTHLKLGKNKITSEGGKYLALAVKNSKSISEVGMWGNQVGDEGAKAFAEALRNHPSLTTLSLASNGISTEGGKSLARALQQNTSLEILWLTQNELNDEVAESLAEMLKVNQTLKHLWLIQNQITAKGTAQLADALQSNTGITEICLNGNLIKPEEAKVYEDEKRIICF

[7] = tested on: HEK293; test: cells; assay type: functional, cell-based; conditions: Homo sapiens; remark: listed apart in the source
[8] = target: Tumor necrosis factor (Homo sapiens, UniProt P01375); test: analog potency on TNFa NF-kB signaling – cell-based, revised, SAR follow-up (AID 2337); assay type: functional
[9] = tested on: HEK293; test: NOD2 signaling inhibitors in MDP-stimulated cells, cell-based, uHTS, luminescence (AID 2001); assay type: functional; conditions: Homo sapiens
[10] = tested on: Streptococcus; test: GAS UMAA2166 growth inhibition – luminescence, BacTiterGlo, counter-screen for streptokinase expression inhibitor project, dose response (AID 1915); assay type: functional, organism-based;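 also: potency for reduction of bacterial viability or growth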
[11] = tested on: HEK293; test: cells; conditions: Homo sapiens
[12] = tested on: Streptococcus sp. 'group A'; test: Streptococcus pyogenes SK(-)GAS viability under kanamycin – luminescence, BacTiterGlo, confirmation, counter-screen for streptokinase expression inhibitor project, dose response (AID 1900); assay type: functional, organism-based
[13] = tested on: HEK293; test: inhibition of NOD1-driven NF-kB reporter – cell-based, luminescence, uHTS, primary screen (AID 1578); assay type: functional; conditions: Homo sapiens
[14] = target: T4, Streptokinase A (Streptococcus pyogenes serotype M1, UniProt P10520); test: viability-normalized secreted streptokinase activity reduction – plasminogen activation absorbance, OD405, dose response (AID 1914); assay type: functional, Streptococcus pyogenes M1 GAS;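 also: secreted streptokinase activity via plasminogen activation per viability signal from cell pellet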
T4 sequence (P10520 whole entry): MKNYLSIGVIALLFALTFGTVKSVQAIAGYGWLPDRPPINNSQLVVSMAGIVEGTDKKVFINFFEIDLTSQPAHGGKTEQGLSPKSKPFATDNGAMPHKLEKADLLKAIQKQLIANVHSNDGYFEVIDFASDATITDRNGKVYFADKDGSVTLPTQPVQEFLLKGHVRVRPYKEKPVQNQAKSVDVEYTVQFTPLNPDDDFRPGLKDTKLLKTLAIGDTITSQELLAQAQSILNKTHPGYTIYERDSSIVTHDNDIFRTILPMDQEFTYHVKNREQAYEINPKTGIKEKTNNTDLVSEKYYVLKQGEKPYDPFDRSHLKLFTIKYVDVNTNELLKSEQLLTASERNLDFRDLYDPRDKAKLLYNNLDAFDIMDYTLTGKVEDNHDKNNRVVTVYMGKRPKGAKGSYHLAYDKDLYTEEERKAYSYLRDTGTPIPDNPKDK

[15] = target: T5, Phosphomannomutase 2 (Homo sapiens, UniProt O15305); test: Counter screen SAR assay for PMM2 inhibitors via a fluorescence intensity assay. [Related pubchem assays (depositor defined):AID1545, AID1574]
T5 sequence (O15305 whole entry): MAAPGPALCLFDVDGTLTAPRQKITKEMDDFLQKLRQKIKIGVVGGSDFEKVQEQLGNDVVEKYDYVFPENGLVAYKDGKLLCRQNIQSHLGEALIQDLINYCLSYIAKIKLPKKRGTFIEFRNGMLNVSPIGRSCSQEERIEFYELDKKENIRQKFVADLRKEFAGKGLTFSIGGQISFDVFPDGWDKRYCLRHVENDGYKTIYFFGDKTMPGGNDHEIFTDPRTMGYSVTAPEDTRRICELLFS

[16] = target: T6, Mannose-6-phosphate isomerase (Homo sapiens, UniProt P34949); test: phosphomannose isomerase inhibition – biochemical, fluorescence intensity, confirmation (AID 1535)
T6 sequence (P34949 whole entry): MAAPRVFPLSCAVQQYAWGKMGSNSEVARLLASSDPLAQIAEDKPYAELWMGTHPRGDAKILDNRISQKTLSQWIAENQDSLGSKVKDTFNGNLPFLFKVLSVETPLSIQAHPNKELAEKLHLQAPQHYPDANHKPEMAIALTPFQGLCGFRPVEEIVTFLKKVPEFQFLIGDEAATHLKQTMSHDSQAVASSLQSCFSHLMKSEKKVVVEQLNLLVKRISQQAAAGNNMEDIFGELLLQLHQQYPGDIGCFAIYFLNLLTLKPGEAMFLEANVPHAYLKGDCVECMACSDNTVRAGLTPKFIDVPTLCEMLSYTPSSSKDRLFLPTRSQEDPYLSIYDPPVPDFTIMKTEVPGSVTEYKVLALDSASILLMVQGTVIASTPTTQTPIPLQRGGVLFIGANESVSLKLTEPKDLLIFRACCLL

Chain of Cytochrome P450 3A4 (P08684 whole entry): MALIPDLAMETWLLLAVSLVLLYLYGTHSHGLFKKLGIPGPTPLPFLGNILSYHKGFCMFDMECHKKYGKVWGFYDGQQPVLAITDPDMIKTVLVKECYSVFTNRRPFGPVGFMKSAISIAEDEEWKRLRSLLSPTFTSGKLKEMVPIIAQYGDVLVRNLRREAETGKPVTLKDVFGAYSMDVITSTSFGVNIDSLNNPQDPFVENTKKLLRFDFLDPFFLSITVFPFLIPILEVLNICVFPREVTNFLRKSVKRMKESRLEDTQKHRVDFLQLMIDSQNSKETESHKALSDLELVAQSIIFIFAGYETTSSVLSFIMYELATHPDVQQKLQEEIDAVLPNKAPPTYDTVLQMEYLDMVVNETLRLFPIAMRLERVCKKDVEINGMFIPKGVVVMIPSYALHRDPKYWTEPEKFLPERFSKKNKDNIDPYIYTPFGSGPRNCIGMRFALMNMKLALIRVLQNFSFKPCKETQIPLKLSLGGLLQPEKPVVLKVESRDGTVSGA
Chain of Eukaryotic translation initiation factor 4E (P63073 whole entry): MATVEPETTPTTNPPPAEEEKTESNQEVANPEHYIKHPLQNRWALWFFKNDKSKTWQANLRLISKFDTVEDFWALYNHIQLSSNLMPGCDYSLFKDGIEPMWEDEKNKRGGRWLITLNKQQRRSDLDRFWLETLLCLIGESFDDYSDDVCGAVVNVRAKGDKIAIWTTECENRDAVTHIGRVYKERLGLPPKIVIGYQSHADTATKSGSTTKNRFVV
Chain of Tumor necrosis factor (P01375 whole entry): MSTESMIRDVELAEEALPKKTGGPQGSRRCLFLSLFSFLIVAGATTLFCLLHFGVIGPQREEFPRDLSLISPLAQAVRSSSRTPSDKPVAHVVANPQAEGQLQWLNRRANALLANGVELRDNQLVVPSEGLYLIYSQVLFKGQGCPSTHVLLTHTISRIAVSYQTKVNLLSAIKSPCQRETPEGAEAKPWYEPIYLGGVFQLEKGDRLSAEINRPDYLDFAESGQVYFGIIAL

| SMILES | IC50 [1] | IC50 [2] | AC50 [4] | IC50 [15] | IC50 [16] | also measured |
| --- | --- | --- | --- | --- | --- | --- |
| O=C(Nc1nnc(SCc2ccc(F)cc2)s1)c1ccc2ncsc2c1 | > 80 µM (inactive) | 12 µM (active) |  |  |  | IC50 [3]: 26.2 µM (active) |
| CCOC(=O)N1CCN(c2nc(-c3cccs3)cc(C(F)(F)F)n2)CC1 |  |  | inconclusive |  |  |  |
| Cc1ccccc1/C=C1\Sc2ccc(C(=O)N3CCN(c4ccccn4)CC3)cc2N(C)C1=O |  |  |  |  |  | IC50 [5]: 5.97 µM (active); IC50 [6]: 4.28 µM (active); IC50 [7]: 7.21 µM (active); IC50 [8]: 6.22 µM (active); IC50 [9]: 6.78 µM (active); EC50 [10]: 16.6 µM (active); IC50 [11]: 10.8 µM (active); EC50 [12]: 4.49 µM (active); EC50 [13]: 8.18 µM (active); EC50 [14]: > 150 µM (not active) |
| NC(=O)CN1CCOCCOCCOCCOCCOCC1 |  |  | inconclusive |  |  |  |
| COCC(=O)N1CCC2(CC1)CCN(c1ccc(-c3ccccc3)cc1)CC2 |  |  | inconclusive |  |  |  |
| Clc1nss/c1=N\c1nccs1 |  |  |  | > 100 µM (inactive) | 32.9 µM (active) and 4.34 µM (active) |  |
| O=c1c2ccccc2sn1-c1nc2ccc(SC(F)F)cc2s1 |  |  |  | > 100 µM (inactive) | > 50 µM (inactive) |  |
| O=c1c2ccccc2sn1-c1ncc(Br)s1 |  |  |  | > 100 µM (inactive) | > 50 µM (inactive) |  |
| O=C(O)CSc1cc(NS(=O)(=O)c2ccccc2)c2ccccc2c1O | > 80 µM (inactive) | 4.84 µM (active) |  |  |  |  |
| Cc1nc(C)c(C(=O)Nc2cccc(C(=O)Nc3cccc(C(F)(F)F)c3)c2)s1 | > 80 µM (inactive) | > 80 µM (inactive) |  |  |  |  |

Source: ChEMBL document CHEMBL1201862, “PubChem BioAssay data set” (2004)
